# Experimental data: paper PMC8835499, “Challenging Approach to the Development of Novel Estrogen Receptor Modulators Based on the Chemical Properties of Guaiazulene” (International Journal of Molecular Sciences, 2022)
# Target: T1, estrogen receptor α (ERα) (Homo sapiens, UniProt P03372)
# T1 construct: gene ESR1; ERα LBD (human recombinant ERα)
# T1 sequence (P03372 311-547 limits assumed): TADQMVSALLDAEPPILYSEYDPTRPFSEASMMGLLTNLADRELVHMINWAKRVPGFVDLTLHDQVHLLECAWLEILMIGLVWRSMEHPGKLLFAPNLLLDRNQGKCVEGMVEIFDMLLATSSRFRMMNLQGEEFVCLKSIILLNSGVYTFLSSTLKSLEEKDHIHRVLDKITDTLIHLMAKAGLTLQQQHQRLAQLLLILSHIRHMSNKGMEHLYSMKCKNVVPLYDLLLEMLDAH
# Experiment: competitive radioligand binding assay with [3H][…]β-estradiol (nitrocellulose filtration)
smiles,measurement,value
"Cc1cc(C=C(c2ccc(O)cc2)c2ccc(O)cc2)c2c(C)ccc(C(C)C)cc1-2 [Az-01, 4,4′-(2-(5-Isopropyl-3,8-dimethylazulen-1-yl)ethene-1,1-diyl)diphenol]",IC50,1.22 nM
